Experimental data as given in ChEMBL document CHEMBL4393673, “Design, synthesis and biological evaluation of pyridine-chalcone derivatives as novel microtubule-destabilizing agents” (Eur J Med Chem, 2019).

Assays:
[1] = tested on: KB; assay: Antiproliferative activity against human KB cells assessed as reduction in cell viability after 72 hrs by MTT assay; assay type: functional, cell-based
[2] = tested on: HCT-8; assay: Antiproliferative activity against human HCT8 cells assessed as reduction in cell viability after 72 hrs by MTT assay; assay type: functional, cell-based; conditions: HCT-8, 72 h
[3] = Antiproliferative activity against […] cells assessed as reduction in cell viability after 72 hrs by MTT assay; assay type: functional, cell-based; conditions: H22, 72 h
[4] = tested on: H22; assay: Antitumor activity against mouse H22 cells allografted in ICR mouse assessed as reduction in tumour weight at 20 mg/kg, iv administered once per day for 21 days relative to control; assay type: functional; conditions: 504 h
[5] = tested on: MDA-MB-231; assay: cells; conditions: Homo sapiens, MDA-MB-231, 72 h
Description: Antiproliferative activity against human MDA-MB-231 cells assessed as reduction in cell viability after 72 hrs by MTT assay

[6] = tested on: K562; assay: Antiproliferative activity against human K562 cells assessed as reduction in cell viability after 72 hrs by MTT assay; assay type: functional, cell-based; conditions: K562, 72 h
[7] = target: Tubulin; assay: Inhibition of tubulin polymerization (unknown origin) in presence of GTP measured after 60 mins by spectrophotometric method; assay type: protein-complex assay, Homo sapiens
[8] = target: T1, Tubulin (Sus scrofa) (UniProt P02554+P02550); assay: Inhibition of [3H]colchicine binding to biotinylated porcine tubulin at 1 uM in presence of GTP after 2 hrs by scintillation proximity assay relative to control; assay type: protein assay
[9] = target: T1, Tubulin (Sus scrofa); assay: Inhibition of [3H]colchicine binding to biotinylated porcine tubulin at 5 uM in presence of GTP after 2 hrs by scintillation proximity assay relative to control; assay type: protein assay
[10] = tested on: L02; assay: cells; conditions: Homo sapiens, L02, 72 h
Description: Cytotoxicity against human LO2 cells assessed as reduction in cell viability after 72 hrs by MTT assay

[11] = target: T2, Tubulin (Homo sapiens) (UniProt P68371+Q9H4B7+P0DPH7+P68366+Q13509+Q71U36+P04350+Q3ZCM7+P07437+P68363+Q9BQE3+Q6PEY2+Q13885+Q9BVA1+Q9BUF5); assay: Inhibition of tubulin polymerization in human K562 cells assessed as disruption of cytosolic microtubule networks after 24 hrs by DAPI staining based immunofluorescence microscopic method; assay type: cell-based
[12] = target: T2, Tubulin (Homo sapiens); assay: Inhibition of tubulin polymerization in human MDA-MB-231 cells assessed as disruption of cytosolic microtubule networks after 24 hrs by DAPI staining based immunofluorescence microscopic method; assay type: cell-based
[13] = tested on: H22; assay: Antitumor activity against mouse H22 cells allografted in ICR mouse assessed as reduction in tumour weight at 6 mg/kg, iv administered once per 2 days for 21 days relative to control; assay type: functional
[14] = Toxicity in ICR mouse allografted with mouse H22 cells assessed as body weight loss at 6 mg/kg, iv administered once per 2 days for 21 days; assay type: organism-based; conditions: in vivo

T1 sequence (P02550 whole entry, looked up): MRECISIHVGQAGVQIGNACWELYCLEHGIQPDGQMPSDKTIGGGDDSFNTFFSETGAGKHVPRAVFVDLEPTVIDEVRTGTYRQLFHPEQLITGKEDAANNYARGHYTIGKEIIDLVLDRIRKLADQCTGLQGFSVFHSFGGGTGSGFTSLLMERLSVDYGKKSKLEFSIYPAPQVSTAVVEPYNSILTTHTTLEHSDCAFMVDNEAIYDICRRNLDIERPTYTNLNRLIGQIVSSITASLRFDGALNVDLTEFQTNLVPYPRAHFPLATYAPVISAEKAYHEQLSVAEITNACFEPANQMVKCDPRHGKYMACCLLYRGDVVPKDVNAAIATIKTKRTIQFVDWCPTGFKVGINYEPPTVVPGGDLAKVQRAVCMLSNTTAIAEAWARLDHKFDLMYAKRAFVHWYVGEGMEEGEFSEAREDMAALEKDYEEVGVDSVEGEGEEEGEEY
T1 sequence (P02554 whole entry, looked up): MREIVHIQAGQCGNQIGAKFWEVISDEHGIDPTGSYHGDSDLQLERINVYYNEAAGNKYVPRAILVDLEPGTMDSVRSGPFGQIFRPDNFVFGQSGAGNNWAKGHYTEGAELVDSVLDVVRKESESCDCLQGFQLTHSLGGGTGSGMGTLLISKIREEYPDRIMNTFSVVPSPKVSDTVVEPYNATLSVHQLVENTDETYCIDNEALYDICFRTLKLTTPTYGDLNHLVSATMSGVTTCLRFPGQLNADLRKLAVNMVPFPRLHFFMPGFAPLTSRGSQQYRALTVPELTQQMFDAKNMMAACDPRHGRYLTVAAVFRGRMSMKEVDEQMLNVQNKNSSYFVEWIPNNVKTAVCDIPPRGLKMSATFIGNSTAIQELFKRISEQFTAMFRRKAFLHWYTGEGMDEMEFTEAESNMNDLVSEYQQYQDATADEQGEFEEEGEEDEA

Compound | IC50 [3] [nM] | inhibition in vivo at 20 mg/kg [4] [%] | IC50 [7] [nM] | inhibition [8] [%] | inhibition [9] [%] | further results
COc1ccc(/C=C\c2cc(OC)c(OC)c(OC)c2)cc1O [COMBRETASTATIN A4] | 8 | 50.9 | – | – | – | IC50 [1]: 11 nM; IC50 [2]: 10 nM; IC50 [5]: 10 nM
COc1ccc(/C=C/C(=O)c2cc(OC)c(OC)c(OC)c2)cc1O | 132 | – | 3050 | 70.2 | 78.3 | IC50 [6]: 68 nM; IC50 [10]: 421 nM
COc1cc(C(=O)/C(C)=C/c2ccc(OC)c(O)c2)cc(OC)n1 | – | – | 2080 | 75.1 | 87.9 | Activity [11]: Dose-dependent effect; Activity [12]: Dose-dependent effect
COc1ccc(/C=C\c2cc(OC)c(OC)c(OC)c2)cc1OP(=O)(O)O [FOSBRETABULIN DISODIUM] | – | 62.7 | – | – | – | –
CC(=O)O[C@H]1C(=O)[C@@]2(C)[C@H]([C@H](OC(=O)c3ccccc3)[C@]3(O)C[C@H](OC(=O)[C@H](O)[C@@H](NC(=O)c4ccccc4)c4ccccc4)C(C)=C1C3(C)C)[C@]1(OC(C)=O)CO[C@@H]1C[C@@H]2O [PACLITAXEL] | – | – | – | – | – | inhibition in vivo at 6 mg/kg [13]: 72.7%; Activity [14]: Toxic
